Assay results reported in BindingDB's records for doi:10.1021/acs.jmedchem.8b01153 (2019).

What was measured:
[1] = target: T1, Induced myeloid leukemia cell differentiation protein Mcl-1 (Homo sapiens, UniProt Q07820); experiment: Binding affinity to MCl-1 (unknown origin) assessed as dissociation rate constant for state one
[2] = target: T1, Induced myeloid leukemia cell differentiation protein Mcl-1; experiment: Binding affinity to MCl-1 (unknown origin) assessed as dissociation rate constant for state two

T1 sequence (Q07820 whole entry): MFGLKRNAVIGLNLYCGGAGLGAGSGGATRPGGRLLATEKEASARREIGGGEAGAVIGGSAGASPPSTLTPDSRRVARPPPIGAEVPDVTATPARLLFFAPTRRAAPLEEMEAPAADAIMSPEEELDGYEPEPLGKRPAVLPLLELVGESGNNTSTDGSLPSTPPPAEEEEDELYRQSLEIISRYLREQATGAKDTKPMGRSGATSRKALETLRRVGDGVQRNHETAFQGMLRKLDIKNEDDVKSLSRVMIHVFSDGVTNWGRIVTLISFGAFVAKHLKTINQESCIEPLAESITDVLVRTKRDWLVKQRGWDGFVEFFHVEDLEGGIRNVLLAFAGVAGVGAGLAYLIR

koff [1] [s⁻¹] | koff [2] [s⁻¹] | Structure (SMILES)
0.14 | 0.018 | Cc1c(-c2cccc3c(CCCOc4cccc5ccccc45)c(C(=O)O)[nH]c23)c(COc2ccc(B(O)O)c(C=O)c2)nn1C [7-(3-((4-Borono-3-formylphenoxy)methyl)-1,5-dimethyl-1Hpyrazol-4-yl)-3-(3-(naphthalen-1-yloxy)propyl)-1H-indole-2-carboxylic acid, 5]
0.13 | 0.01 | Cc1c(-c2cccc3c(CCCOc4cccc5ccccc45)c(C(=O)O)n(C)c23)c(COc2ccc(B(O)O)c(C=O)c2)nn1C [7-(3-((4-Borono-3-formylphenoxy)methyl)-1,5-dimethyl-1Hpyrazol-4-yl)-1-methyl-3-(3-(naphthalen-1-yloxy)propyl)-1H-indole-2-carboxylic acid, 11]
